The values below come from patent US8518492B2, “Composition, method for manufacturing thin film, and method for manufacturing light-emitting element” (Semiconductor Energy Laboratory Co., Ltd., priority 2008, dated 2013).

Structures are written as SMILES. Read-outs that look alike come from different tables or passages of the source.

The nature of data set [1]: Solubility test of anthracene derivatives in solvents. It is filed as physicochemical. The settings on record: for solubility at 10 min: organic solvent or mixture, thermodynamic from solid, ultrasonic waves 10 minutes; for solubility in a solvent (summary in words): solubility test at 10 g/L, six solvents. The protocol:
As comparative examples, compositions were produced by dissolving samples 1-1 to 1-4 in solvents. As manufacturing examples 1, compositions were produced by dissolving samples 1-5 to 1-14 in solvents. The solubility test was performed on the solvents of the anthracene derivatives of the samples […]. The following six solvents were used: diethyl ether, toluene, ethyl acetate, anisole, acetone, and 1,4-dioxane.
0.01 g of each of the anthracene derivatives of the samples 1-1 to 1-14 was measured and put in a sample bottle, 1 mL of a solvent was added in the sample bottle (the solution concentration was 10 g/L), and ultrasonic waves were applied thereto for 10 minutes.

Data set [2] can be described thus: Film quality test of spin-coated thin films. The format is physicochemical. Also on record: key to Film Quality Test, Solvent Toluene / Film Quality Test, Solvent Ethyl acetate / Film Quality Test, Solvent Anisole / Film Quality Test, Solvent dioxane: ◯: a circle is marked in the case of a transparent film where crystallization or white turbidity is not seen; X: a cross is marked in the case of a film where crystallization or white turbidity is seen. As to conditions: for Film Quality Test, Solvent Anisole: 10 g/L in anisole; for Film Quality Test, Solvent Anisole / Film Quality Test, Solvent dioxane / Film Quality Test, Solvent Ethyl acetate / Film Quality Test, Solvent Toluene: spin coated on glass substrate at 1000 rpm (60 seconds); for Film Quality Test, Solvent dioxane: 10 g/L in dioxane; for Film Quality Test, Solvent Ethyl acetate: 10 g/L in ethyl acetate; for Film Quality Test, Solvent Toluene: 10 g/L in toluene. The protocol: A composition of each of the samples was adjusted at a concentration of 10 g/L which is the same as that of the solubility test and was deposited over a glass substrate with a size of 5 inches at 1000 rpm (60 seconds) with a spin coater.

[3] abbreviates: 0.01 g in 1 mL 1,4-dioxane (10 g/L), read-out: Solubility Test, Solvent dioxane.
Setting [4] is: 0.01 g in 1 mL acetone (10 g/L), read-out: Solubility Test, Solvent acetone.
[5] abbreviates: 0.01 g in 1 mL anisole (10 g/L), read-out: Solubility Test, Solvent Anisole.
Setting [6] is: 0.01 g in 1 mL diethyl ether (10 g/L), read-out: Solubility Test, Solvent Diethyl ether.
Where [7] appears, read: 0.01 g in 1 mL ethyl acetate (10 g/L), read-out: Solubility Test, Solvent Ethyl acetate.
[8] abbreviates: 0.01 g in 1 mL toluene (10 g/L), read-out: Solubility Test, Solvent Toluene.

Usually solubility stands for the dissolved amount per volume that the medium holds. For the molecule `c1ccc2cc(-c3c4ccccc4c(-c4ccc(-n5c6ccccc6c6ccccc65)cc4)c4ccccc34)ccc2c1` [Sample 1-9, 9-[4-(carbazol-9-yl)phenyl]-10-(2-naphthyl)anthracene], the solubility at 10 min in data set [1] (setting [3]) is more than 10000 µg/mL; in data set [1] (setting [4]), less than 10000 µg/mL; in data set [1] (setting [5]) it was more than 10000 µg/mL; in data set [1] (setting [6]) it was less than 10000 µg/mL; in data set [1] (setting [7]), less than 10000 µg/mL; in data set [1] (setting [8]) it was more than 10000 µg/mL. For the same molecule, in data set [2], the “Film Quality Test, Solvent Anisole” value is “◯”. Also, in data set [2], the “Film Quality Test, Solvent dioxane” value is on record as “X”. The “Film Quality Test, Solvent Ethyl acetate” value in data set [2] was “X”. Moreover, the “Film Quality Test, Solvent Toluene” value in data set [2] is recorded as “◯”.

As for `c1ccc2c(-c3ccc(-n4c5ccccc5c5ccccc54)cc3)c3ccccc3c(-c3ccc(-n4c5ccccc5c5ccccc54)cc3)c2c1` [Sample 1-2, 9,10-bis(4-(N-carbazolyl)phenyl)anthracene, reference compound], the solubility at 10 min in data set [1] (setting [3]), in data set [1] (setting [4]), in data set [1] (setting [5]), in data set [1] (setting [6]), in data set [1] (setting [7]) and in data set [1] (setting [8]) was less than 10000 µg/mL throughout. In addition, in data set [1], the “solubility in a solvent (summary in words)” value (shortened to “solubility in a solvent”) is on record as “low solubility”.

For `c1ccc(-c2ccccc2-c2c3ccccc3c(-c3ccccc3-c3ccccc3)c3cc(-n4c5ccccc5c5ccccc54)ccc23)cc1` [Sample 1-14, 9-[9,10-bis(2-biphenyl)-2-anthryl]-9H-carbazole], in data set [2], the “Film Quality Test, Solvent Anisole” value was “◯”; the “Film Quality Test, Solvent dioxane” value was “X”; the “Film Quality Test, Solvent Ethyl acetate” value is reported as “◯”; the “Film Quality Test, Solvent Toluene” value is recorded as “◯”.

As for `c1ccc(-c2c3ccccc3c(-c3ccc(-n4c5ccccc5c5cc(-c6ccc7c(c6)c6ccccc6n7-c6ccccc6)ccc54)cc3)c3ccccc23)cc1` [Sample 1-3, 9-phenyl-9′-[4-(10-phenyl-9-anthryl)phenyl]-3,3′-bi(9H-carbazole), reference compound], the solubility at 10 min in data set [1] (setting [3]), in data set [1] (setting [4]), in data set [1] (setting [5]), in data set [1] (setting [6]), in data set [1] (setting [7]) and in data set [1] (setting [8]) was less than 10000 µg/mL throughout. Moreover, in data set [1], the “solubility in a solvent” value is “low solubility”.

For the molecule `CC(C)(C)c1ccc(-c2c3ccccc3c(-c3ccc(-n4c5ccccc5c5ccccc54)cc3)c3ccccc23)cc1` [Sample 1-8, 9-(4-tert-butylphenyl)-10-[4-(carbazol-9-yl)]phenylanthracene], in data set [2], the “Film Quality Test, Solvent Anisole” value is recorded as “◯”; the “Film Quality Test, Solvent dioxane” value is given as “X”; the “Film Quality Test, Solvent Ethyl acetate” value is given as “X”; the “Film Quality Test, Solvent Toluene” value is recorded as “◯”.

For `c1ccc(-c2c3ccccc3c(-c3cccc(-n4c5ccccc5c5ccccc54)c3)c3ccccc23)cc1` [Sample 1-7, 9-[3-(10-phenyl-9-anthryl)phenyl]-9H-carbazole], the solubility at 10 min was more than 10000 µg/mL in data set [1] (setting [3]); less than 10000 µg/mL in data set [1] (setting [4]); more than 10000 µg/mL in data set [1] (setting [5]); less than 10000 µg/mL in data set [1] (setting [6]); less than 10000 µg/mL in data set [1] (setting [7]); more than 10000 µg/mL in data set [1] (setting [8]). The “Film Quality Test, Solvent Anisole” value in data set [2] was “◯”. The “Film Quality Test, Solvent dioxane” value in data set [2] was “◯”. The “Film Quality Test, Solvent Ethyl acetate” value in data set [2] is “X”. Also, the “Film Quality Test, Solvent Toluene” value in data set [2] is “◯”.

For the molecule `c1ccc(-c2c3ccccc3c(-c3ccccc3)c3cc(-n4c5ccccc5c5ccccc54)ccc23)cc1` [Sample 1-12, 9-(9,10-diphenyl-2-anthryl)-9H-carbazole], the solubility at 10 min in data set [1] (setting [3]) was more than 10000 µg/mL; in data set [1] (setting [4]), less than 10000 µg/mL; in data set [1] (setting [5]) it was more than 10000 µg/mL; in data set [1] (setting [6]) it was more than 10000 µg/mL; in data set [1] (setting [7]) it was more than 10000 µg/mL; in data set [1] (setting [8]), more than 10000 µg/mL. Besides, the “Film Quality Test, Solvent Anisole” value in data set [2] was “◯”. Further, the “Film Quality Test, Solvent dioxane” value in data set [2] was “X”. Besides, the “Film Quality Test, Solvent Ethyl acetate” value in data set [2] is “◯”. The “Film Quality Test, Solvent Toluene” value in data set [2] is “◯”.

With `c1ccc(-c2c3ccccc3c(-c3ccccc3)c3cc(-c4ccc5c(c4)c4ccccc4n5-c4ccccc4)ccc23)cc1` [Sample 1-13, 3-(9,10-diphenyl-2-anthryl)-9-phenyl-9H-carbazole], the solubility at 10 min in data set [1] (setting [3]), in data set [1] (setting [4]), in data set [1] (setting [5]), in data set [1] (setting [7]) and in data set [1] (setting [8]) was more than 10000 µg/mL throughout. Further, the “Film Quality Test, Solvent Anisole” value in data set [2] is listed as “◯”. Moreover, the “Film Quality Test, Solvent dioxane” value in data set [2] was “X”. For the same molecule, in data set [2], the “Film Quality Test, Solvent Ethyl acetate” value is given as “◯”. The “Film Quality Test, Solvent Toluene” value in data set [2] is given as “◯”.

Turning to `c1ccc(-c2ccc3c(c2)c2cc(-c4ccccc4)ccc2n3-c2ccc(-c3c4ccccc4c(-c4ccccc4)c4ccccc34)cc2)cc1` [Sample 1-10, 3,6-diphenyl-9-[4-(10-phenyl-9-antryl)phenyl]-9H-carbazole], in data set [2], the “Film Quality Test, Solvent Anisole” value is on record as “◯”; the “Film Quality Test, Solvent dioxane” value was “X”; the “Film Quality Test, Solvent Ethyl acetate” value is “X”; the “Film Quality Test, Solvent Toluene” value is given as “◯”.

Turning to `c1ccc(-c2c3ccccc3c(-c3ccccc3)c3cc(-c4ccc(-n5c6ccccc6c6ccccc65)cc4)ccc23)cc1` [Sample 1-11, 9-[4-(9,10-diphenyl-2-anthryl)phenyl]-9H-carbazole], the solubility at 10 min is more than 10000 µg/mL in data set [1] (setting [3]); less than 10000 µg/mL in data set [1] (setting [4]); more than 10000 µg/mL in data set [1] (setting [5]); less than 10000 µg/mL in data set [1] (setting [7]); more than 10000 µg/mL in data set [1] (setting [8]). Further, the “Film Quality Test, Solvent Anisole” value in data set [2] is listed as “◯”. Besides, the “Film Quality Test, Solvent dioxane” value in data set [2] is on record as “X”. Moreover, the “Film Quality Test, Solvent Ethyl acetate” value in data set [2] is on record as “X”. In addition, the “Film Quality Test, Solvent Toluene” value in data set [2] was “◯”.

In the case of `c1ccc(-c2c3ccccc3c(-c3ccc(-n4c5ccccc5c5ccccc54)cc3)c3ccccc23)cc1` [Sample 1-5, 9-[4-(N-carbazolyl)]phenyl-10-phenylanthracene], in data set [2], the “Film Quality Test, Solvent Anisole” value was “◯”; the “Film Quality Test, Solvent dioxane” value was “X”; the “Film Quality Test, Solvent Ethyl acetate” value is on record as “X”; the “Film Quality Test, Solvent Toluene” value is “◯”.

As for `c1ccc(-c2c3ccccc3c(-c3ccccc3)c3ccccc23)cc1` [Sample 1-1, 9,10-diphenylanthracene, reference compound], the solubility at 10 min in data set [1] (setting [3]) is less than 10000 µg/mL; in data set [1] (setting [4]), less than 10000 µg/mL; in data set [1] (setting [5]) it was more than 10000 µg/mL; in data set [1] (setting [6]) it was less than 10000 µg/mL; in data set [1] (setting [7]) it was less than 10000 µg/mL; in data set [1] (setting [8]), more than 10000 µg/mL. Further, in data set [1], the “solubility in a solvent” value is on record as “high solubility”. Also, in data set [2], the “Film Quality Test, Solvent Anisole” value is “X”. The “Film Quality Test, Solvent dioxane” value in data set [2] is given as “X”. Moreover, in data set [2], the “Film Quality Test, Solvent Ethyl acetate” value is “X”. Besides, the “Film Quality Test, Solvent Toluene” value in data set [2] was “X”. Moreover, in data set [2] (film quality test, spin coated from 10 g/L composition), the “film quality (summary in words)” value is “crystallized film with a bad quality”.

On to `c1ccc(-c2c3ccccc3c(-c3ccc(-c4ccc5c(c4)c4ccccc4n5-c4ccccc4)cc3)c3ccccc23)cc1` [Sample 1-6, 9-phenyl-3-[4-(10-phenyl-9-anthryl)phenyl]-9H-carbazol], for which the solubility at 10 min in data set [1] (setting [3]) was more than 10000 µg/mL; in data set [1] (setting [4]), less than 10000 µg/mL; in data set [1] (setting [5]), more than 10000 µg/mL; in data set [1] (setting [6]) it was less than 10000 µg/mL; in data set [1] (setting [7]), less than 10000 µg/mL; in data set [1] (setting [8]), more than 10000 µg/mL. For the same molecule, the “Film Quality Test, Solvent Anisole” value in data set [2] was “◯”. For the same molecule, the “Film Quality Test, Solvent dioxane” value in data set [2] was “X”. Moreover, in data set [2], the “Film Quality Test, Solvent Ethyl acetate” value is on record as “X”. Besides, the “Film Quality Test, Solvent Toluene” value in data set [2] is recorded as “◯”.

For `CC(C)(C)c1ccc2c(-c3ccc(-c4ccc5c(c4)c4ccccc4n5-c4ccccc4)cc3)c3ccccc3c(-c3ccc(-c4ccc5c(c4)c4ccccc4n5-c4ccccc4)cc3)c2c1` [Sample 1-4, 3,3′-(2-tert-buthylanthracene-9,10′-diyldi-4,1-phenylene)bis(9-phenyl-9H-carbazole), reference compound], in data set [1], the “solubility in a solvent” value was “low solubility”.
